Test results taken from patent US20250197356A1, “METHOD FOR SYNTHESIZING NUCIFERINE OR DERIVATIVE THEREOF, DERIVATIVE OF NUCIFERINE AND USE THEREOF” (HUAQIAO UNIVERSITY, priority 2022, published 2025).
Where two headings read alike, the source gives them in different places.

Tests used:
[1] = cited from earlier work
hyperlipidemia rats [2] = assay: Liver and kidney indexes in high-fat diet hyperlipidemia rats; assay type: in vivo, SD rats; conditions: 20 mg/(kg d) by gastric gavage, 4 weeks, x ± s, n = 9
Excerpt: (§1) Animals: 54 SPF-grade SD rats, weighing 120±10 g, provided by Laboratory Animal Business Department, Shanghai Family Planning Research Institute, China, Animal license number: SCXK(Shanghai)2018-0006.
(§2) Modeling scheme: 54 adult rats of 120±10 g were selected and fed adaptively for three days. They were then randomly divided to 6 groups, 9 animals for each group. They were blank control group, model group, positive control group, nuciferine group, and nuciferine structural modification group. The blank control group was fed with normal diet. […] The feeding and modeling time was 5 weeks.
(§3) Liver tissue sample collection: the rats were killed by dislocation, and the liver was taken out immediately after death, which was observed by naked eye to find out whether there was abnormal color and lesions, and was then rinsed with ice normal saline. The left lobe of the liver was quickly cut into small pieces and fixed in 10% formaldehyde overnight for sectioning. The tissue of the right lobe of the liver was quickly wrapped in tin box and stored at −80° C. for later use.

hyperlipidemia rats [3] = assay: Liver tissue homogenate biochemical indicators in high-fat diet hyperlipidemia rats; assay type: in vivo, SD rats; conditions: liver tissue, 20 mg/(kg d) by gastric gavage, 4 weeks, x ± s, n = 9
Excerpt: as §1
(§4) Drug to be tested: Nuciferine purchased from Shanghai Aladdin Biochemical Technology Co., Ltd., China, and its derivatives (purity >99%) that were synthesized in the laboratory by the methods of Examples 2-7.
(§5) Other reagents: AST, ALT, TC, TG, NEFA, Bun, Cr, CAT, GSH-Px, GSH, MDA test kits, purchased from Nanjing Jiancheng Bioengineering Institute, China; HL and PL test kits, purchased from Jianglai Biotechnology Co., Ltd., China; experimental reagents such as anhydrous ethanol, xylene, isopropanol neutral gum, purchased from Sinopharm Chemical Reagent Co., Ltd., China; HE dye solution, DAB color development agent, and oil red O dye solution, purchased from KeyGEN Biotechnology Co., Ltd, China; Antibodies IL-6 and TNF-α, purchased from Abcam Limited.
as §2, with “weeks. Within 4 weeks after modeling, continuous administration was performed: the blank control group and model group were given 0.2 mL of distilled water by gastric gavage; the positive control group was administrated 20 mg/(kg d) of simvastatin; while the treatment group was administrated 20 mg/(kg d) of nuciferine or 20 mg/(kg d) of a derivative of nuciferine (compounds 6a-6f).” for “weeks.”
as §3
Preparation of 10% liver homogenate: the liver wrapped in tin box and stored in the ultra-low temperature freezer at −80° C. was taken out, and quickly placed on an ice box. 0.2 g of liver tissue was accurately taken, and ice normal saline with a volume 9 times that of the liver issue was added thereto. 10% tissue homogenate was formed by grounding and mixing, and then centrifuged at 3000 r/min and 4° C. for 10 min. The supernatant was collected for later use.
(§6) Biochemical indicator determination: indicators AST, ALT, TC, TG, NEFA, Bun, Cr, CAT, GSH-Px, GSH, MDA, HL, PL were determined according to the instructions of the kits.

hyperlipidemia rats [4] = assay: Serum biochemical indicators in high-fat diet hyperlipidemia rats; assay type: in vivo, SD rats; conditions: serum, 20 mg/(kg d) by gastric gavage, 4 weeks; for ALT (U/L) / AST (U/L) / Bun / Cr: x ± s, n = 9
Excerpt: as §1, §4, §5
as §2, with “weeks. Within 4 weeks after modeling, continuous administration was performed: the blank control group and model group were given 0.2 mL of distilled water by gastric gavage; the positive control group was administrated 20 mg/(kg d) of simvastatin; while the treatment group was administrated 20 mg/(kg d) of nuciferine or 20 mg/(kg d) of a derivative of nuciferine (compounds 6a-6f).” for “weeks.”
Blood sample collection: 24 h after the last gastric gavage administration, eyeballs were taken out and blood was drawn. Whole blood was collected in an EP tube, and centrifuged at 3000 r/min and 4° C. for 10 min, and the supernatant was collected and stored at −20° C. for blood biochemical indicator test.
as §6

hyperlipidemia rats [5] = assay: Liver appearance and HE histopathological observation in hyperlipidemia rats; assay type: in vivo, SD rats; conditions: compared with the model group, 20 mg/(kg d)
Excerpt: as §1, §2, §3

[6] = TCMSP database, screening threshold OB ≥30%

| Molecule | OB/% (oral bioavailability) [1, 6] [%] | Kidney index (%) (hyperlipidemia rats [2]) | Liver index (%) (hyperlipidemia rats [2]) | CAT (U/mgprot) (hyperlipidemia rats [3]) | GSH (μmol/gprot) (hyperlipidemia rats [3]) | GSH-Px (U/mgprot) (hyperlipidemia rats [3]) | HL (U/mgprot) (hyperlipidemia rats [3]) | LPL (U/mgprot) (hyperlipidemia rats [3]) | MDA (nmol/mgprot) (hyperlipidemia rats [3]) | NEFA (μmol/g prot) (hyperlipidemia rats [3]) | TG (mmol/g prot) (hyperlipidemia rats [3]) | LDL-C (hyperlipidemia rats [4]) [mmol/L] | TC (hyperlipidemia rats [4]) [mmol/L] | TG (hyperlipidemia rats [4]) [mmol/L] | ALT (U/L) (hyperlipidemia rats [4]) | AST (U/L) (hyperlipidemia rats [4]) | Bun (hyperlipidemia rats [4]) [mmol/L] | Cr (hyperlipidemia rats [4]) [µmol/L] | further results |
| --- | --- | --- | --- | --- | --- | --- | --- | --- | --- | --- | --- | --- | --- | --- | --- | --- | --- | --- | --- |
| COc1cc2c(cc1O)C(Cc1ccc(O)cc1)NCC2 (stereo not drawn) [Machiline] | 79.64 | – | – | – | – | – | – | – | – | – | – | – | – | – | – | – | – | – | – |
| CCC(C)(C)C(=O)O[C@H]1C[C@@H](C)C=C2C=C[C@H](C)[C@H](CC[C@@H]3C[C@@H](O)CC(=O)O3)[C@H]21 [Simvastatin, simvastatin, reference compound] | – | 0.68 ± 0.03 | 4.47 ± 0.36 | 29.35 ± 7.00 | 341.36 ± 98.66 | 708.02 ± 47.00 | 0.45 ± 0.11 | 0.50 ± 0.06 | 0.84 ± 0.19 | 103.22 ± 8.89 | 0.09 ± 0.01 | 0.62 ± 0.17 | 2.00 ± 0.19 | 0.47 ± 0.05 | 13.74 ± 4.06 | 7.57 ± 1.78 | 3.98 ± 0.43 | 53.79 ± 7.58 | – |
| Oc1cc(O)c2c(c1)O[C@@H](c1ccc(O)c(O)c1)[C@@H](O)C2 [ent-Epicatechin] | – | – | – | – | – | – | – | – | – | – | – | – | – | – | – | – | – | – | OB/% (oral bioavailability) ([1]; po): 48.96% |
| COc1cc2c3c(c1OC)-c1ccccc1CC3N(C(=O)c1ccccc1)CC2 (stereo not drawn) [Compound 6a, Benzoylnuciferine] | – | 0.68 ± 0.04 | 4.58 ± 0.29 | 26.06 ± 2.69 | 360.02 ± 43.63 | 550.96 ± 60.97 | 0.35 ± 0.03 | 0.27 ± 0.03 | 0.94 ± 0.27 | 107.69 ± 6.44 | 0.10 ± 0.02 | 0.54 ± 0.09 | 1.94 ± 0.18 | 0.56 ± 0.05 | 15.46 ± 8.79 | 7.85 ± 2.23 | 3.16 ± 0.17 | 51.82 ± 7.06 | Liver appearance (photographs, FIG. 8) (hyperlipidemia rats [5]): more brittle |
| COc1cc2c3c(c1OC)-c1ccccc1CC3N(C(=O)c1ccccc1C)CC2 (stereo not drawn) [Compound 6d, o-Methylbenzoylnuciferine] | – | 0.68 ± 0.04 | 4.58 ± 0.24 | 25.78 ± 2.67 | 360.02 ± 43.63 | 562.93 ± 68.91 | 0.37 ± 0.08 | 0.42 ± 0.06 | 0.95 ± 0.48 | 106.32 ± 22.95 | 0.13 ± 0.02 | 0.68 ± 0.15 | 2.03 ± 0.09 | 0.57 ± 0.07 | 15.62 ± 9.43 | 7.78 ± 2.27 | 3.56 ± 0.19 | 53.82 ± 6.13 | – |
| (−)-catechin | – | – | – | – | – | – | – | – | – | – | – | – | – | – | – | – | – | – | OB/% (oral bioavailability) ([1]; po): 49.68% |
| CN1CCc2cc(O)c(O)cc2[C@@H]1Cc1ccc(O)cc1 [(1S)-1-(4-hydroxybenzyl)-2-methyl-3,4-dihydro-1H-isoquinoline-6,7-diol] | 67.14 | – | – | – | – | – | – | – | – | – | – | – | – | – | – | – | – | – | – |
| Oc1cc(O)c2c(c1)OC(c1ccc(O)c(O)c1)C(O)C2O (single isomer, unassigned; (+)) [(+)-Leucocyanidin] | 37.61 | – | – | – | – | – | – | – | – | – | – | – | – | – | – | – | – | – | – |
| COc1cc2c(cc1OC)C(Cc1ccc(O)cc1)N(C)CC2 (stereo not drawn) [Armepavine] | 69.31 | – | – | – | – | – | – | – | – | – | – | – | – | – | – | – | – | – | – |
| COc1cc2c3c(c1OC)-c1ccccc1CC3N(C(=O)c1ccc(C)cc1)CC2 (stereo not drawn) [Compound 6c, p-Methylbenzoylnuciferine] | – | 0.68 ± 0.03 | 4.58 ± 0.26 | 27.43 ± 3.14 | 374.63 ± 137.14 | 567.63 ± 51.57 | 0.44 ± 0.78 | 0.50 ± 0.07 | 0.94 ± 0.38 | 107.69 ± 6.44 | 0.10 ± 0.02 | 0.54 ± 0.08 | 1.93 ± 0.16 | 0.56 ± 0.07 | 16.44 ± 8.69 | 7.86 ± 2.24 | 3.45 ± 0.51 | 51.39 ± 5.83 | – |
| CC(C)=CCC[C@@H](C)[C@H]1CC[C@@]2(C)[C@@H]3CC[C@H]4C(C)(C)[C@@H](O)CC[C@@]45C[C@@]35CC[C@]12C [Cycloartenol] | 38.69 | – | – | – | – | – | – | – | – | – | – | – | – | – | – | – | – | – | – |
| Oc1cc(O)c2c(c1)O[C@@H](c1cc(O)c(O)c(O)c1)[C@@H](O)[C@@H]2O [leucodelphinidin] | 30.02 | – | – | – | – | – | – | – | – | – | – | – | – | – | – | – | – | – | – |
| COc1ccc(C(=O)N2CCc3cc(OC)c(OC)c4c3C2Cc2ccccc2-4)cc1 (stereo not drawn) [Compound 6e, p-Methoxybenzoylnuciferine] | – | 0.68 ± 0.05 | 4.58 ± 0.27 | 26.34 ± 4.54 | 363.09 ± 71.72 | 537.18 ± 34.93 | 0.37 ± 0.07 | 0.28 ± 0.04 | 1.02 ± 0.73 | 107.69 ± 6.44 | 0.10 ± 0.02 | 0.56 ± 0.08 | 1.95 ± 0.13 | 0.55 ± 0.05 | 15.54 ± 8.69 | 7.65 ± 2.26 | 3.43 ± 0.27 | 52.90 ± 2.21 | – |
| o-Nornuciferine | 33.52 | – | – | – | – | – | – | – | – | – | – | – | – | – | – | – | – | – | – |
| CN1CCc2cc3c(c4c2C1Cc1ccccc1-4)OCO3 (stereo not drawn) [Remerin] | 40.75 | – | – | – | – | – | – | – | – | – | – | – | – | – | – | – | – | – | – |
| COc1cc2c3c(c1OC)-c1ccccc1CC3N(C(C)=O)CC2 (stereo not drawn) [Compound 6f, Acetylnuciferine] | – | 0.68 ± 0.03 | 4.58 ± 0.25 | 27.42 ± 2.82 | 361.04 ± 43.65 | 560.90 ± 62.45 | 0.56 ± 0.06 | 0.26 ± 0.08 | 0.98 ± 0.56 | 106.32 ± 22.95 | 0.13 ± 0.02 | 0.69 ± 0.16 | 2.02 ± 0.16 | 0.58 ± 0.07 | 16.73 ± 9.74 | 7.74 ± 2.22 | 3.62 ± 0.15 | 52.82 ± 4.36 | – |
| COc1cc(-c2oc3cc(O)cc(O)c3c(=O)c2O)ccc1O [isorhamnetin] | 49.6 | – | – | – | – | – | – | – | – | – | – | – | – | – | – | – | – | – | – |
